Drawing on PubChem BioAssay AID1259407 (Chemical Carcinogenesis Research Information System (CCRIS), 2018), this text covers mutagenic call for 7 compounds.

The data set deals with CCRIS mutagenicity, Ames/micronucleus/aberration tests. The experiment in a line: CCRIS mutagenicity studies.
The mark [1] stands for this setting: Test System: AMES SALMONELLA TYPHIMURIUM, Strain/Indicator: TA100, Metabolic Activation: NONE, Method: STANDARD PLATE.
Setting [2] is: Test System: AMES SALMONELLA TYPHIMURIUM, Strain/Indicator: TA98, Metabolic Activation: NONE, Method: STANDARD PLATE.
[3] abbreviates: Test System: AMES SALMONELLA TYPHIMURIUM, Strain/Indicator: TA98, Metabolic Activation: RAT, LIVER, S-9, AROCLOR 1254, Method: STANDARD PLATE.
[4] abbreviates: Test System: AMES SALMONELLA TYPHIMURIUM, Strain/Indicator: TA100, Metabolic Activation: RAT, LIVER, S-9, AROCLOR 1254, Method: STANDARD PLATE.

The source made the active and inactive calls. How the calls were made is not given here.

On to `CCOc1ccc(NO)cc1`, for which the mutagenic call runs as follows: (Test System: AMES SALMONELLA TYPHIMURIUM, Strain/Indicator: TA100(NR), Metabolic Activation: NONE, Method: PREINCUBATION) “inactive; negative”; (Test System: AMES SALMONELLA TYPHIMURIUM, Strain/Indicator: TA100(NR), Metabolic Activation: NONE, Method: STANDARD PLATE) “inactive; negative”; (Test System: AMES SALMONELLA TYPHIMURIUM, Strain/Indicator: TA100, Metabolic Activation: HAMSTER, LIVER, S-9, KANECHLOR 400, Method: PREINCUBATION) “active; positive”; under setting [1], “inactive; negative”; (Test System: AMES SALMONELLA TYPHIMURIUM, Strain/Indicator: TA100TN5-1,8-DNP1011, Metabolic Activation: NONE, Method: PREINCUBATION) “inactive; negative”; (Test System: AMES SALMONELLA TYPHIMURIUM, Strain/Indicator: TA100TN5-1,8-DNP1011, Metabolic Activation: NONE, Method: STANDARD PLATE) “inactive; negative”. The mutagenic call (Test System: AMES SALMONELLA TYPHIMURIUM, Strain/Indicator: TA100TN5-1,8-DNP1012, Metabolic Activation: NONE, Method: PREINCUBATION) is “inactive; negative”; the mutagenic call (Test System: AMES SALMONELLA TYPHIMURIUM, Strain/Indicator: TA100TN5-1,8-DNP1012, Metabolic Activation: NONE, Method: STANDARD PLATE) is “inactive; negative”; the mutagenic call (Test System: AMES SALMONELLA TYPHIMURIUM, Strain/Indicator: YG1026, Metabolic Activation: NONE, Method: PREINCUBATION) is “active; positive”; the mutagenic call (Test System: AMES SALMONELLA TYPHIMURIUM, Strain/Indicator: YG1029, Metabolic Activation: NONE, Method: PREINCUBATION) is “active; positive”; the mutagenic call (Test System: AMES SALMONELLA TYPHIMURIUM, Strain/Indicator: YG1042, Metabolic Activation: NONE, Method: PREINCUBATION) was “active; positive”.

With `Cc1c(C)c(Br)c(Br)c(Br)c1Br`, the mutagenic call (Test System: AMES SALMONELLA TYPHIMURIUM, Strain/Indicator: TA98, Metabolic Activation: HAMSTER, LIVER, S-9, AROCLOR 1254 (10%), Method: PREINCUBATION) is “inactive; negative”; the mutagenic call (Test System: AMES SALMONELLA TYPHIMURIUM, Strain/Indicator: TA98, Metabolic Activation: NONE, Method: PREINCUBATION) is “inactive; negative”; the mutagenic call (Test System: AMES SALMONELLA TYPHIMURIUM, Strain/Indicator: TA98, Metabolic Activation: RAT, LIVER, S-9, AROCLOR 1254 (10%), Method: PREINCUBATION) was “inactive; negative”; the mutagenic call (Test System: AMES SALMONELLA TYPHIMURIUM, Strain/Indicator: TA100, Metabolic Activation: HAMSTER, LIVER, S-9, AROCLOR 1254 (10%), Method: PREINCUBATION) was “inactive; negative”; the mutagenic call (Test System: AMES SALMONELLA TYPHIMURIUM, Strain/Indicator: TA100, Metabolic Activation: NONE, Method: PREINCUBATION) is “inactive; negative”; the mutagenic call (Test System: AMES SALMONELLA TYPHIMURIUM, Strain/Indicator: TA100, Metabolic Activation: RAT, LIVER, S-9, AROCLOR 1254 (10%), Method: PREINCUBATION) was “inactive; negative”. For the same compound, the mutagenic call by setting is: (Test System: AMES SALMONELLA TYPHIMURIUM, Strain/Indicator: TA1535, Metabolic Activation: HAMSTER, LIVER, S-9, AROCLOR 1254 (10%), Method: PREINCUBATION) “inactive; negative”; (Test System: AMES SALMONELLA TYPHIMURIUM, Strain/Indicator: TA1535, Metabolic Activation: NONE, Method: PREINCUBATION) “inactive; negative”; (Test System: AMES SALMONELLA TYPHIMURIUM, Strain/Indicator: TA1535, Metabolic Activation: RAT, LIVER, S-9, AROCLOR 1254 (10%), Method: PREINCUBATION) “inactive; negative”; (Test System: AMES SALMONELLA TYPHIMURIUM, Strain/Indicator: TA1537, Metabolic Activation: HAMSTER, LIVER, S-9, AROCLOR 1254 (10%), Method: PREINCUBATION) “inactive; negative”; (Test System: AMES SALMONELLA TYPHIMURIUM, Strain/Indicator: TA1537, Metabolic Activation: NONE, Method: PREINCUBATION) “inactive; negative”; (Test System: AMES SALMONELLA TYPHIMURIUM, Strain/Indicator: TA1537, Metabolic Activation: RAT, LIVER, S-9, AROCLOR 1254 (10%), Method: PREINCUBATION) “inactive; negative”.

Turning to `COCC=O`, the mutagenic call is “active; positive” (Test System: AMES SALMONELLA TYPHIMURIUM, Strain/Indicator: TA97A, Metabolic Activation: NONE, Method: STANDARD PLATE); “active; positive” (Test System: AMES SALMONELLA TYPHIMURIUM, Strain/Indicator: TA97A, Metabolic Activation: RAT, LIVER, S-9, AROCLOR 1254, Method: STANDARD PLATE); “inactive; negative” under setting [2]; “inactive; negative” under setting [3]; “inactive; negative” under setting [1]; “inactive; negative” under setting [4]. Besides, the mutagenic call runs as follows: (Test System: AMES SALMONELLA TYPHIMURIUM, Strain/Indicator: TA102, Metabolic Activation: NONE, Method: STANDARD PLATE) “inactive; negative”; (Test System: AMES SALMONELLA TYPHIMURIUM, Strain/Indicator: TA102, Metabolic Activation: RAT, LIVER, S-9, AROCLOR 1254, Method: STANDARD PLATE) “inactive; negative”; (Test System: CHINESE HAMSTER OVARY, Strain/Indicator: CHO AS52 (GPT)/6-THIOGUANINE, Metabolic Activation: NONE) “active; positive”; (Test System: CHINESE HAMSTER OVARY, Strain/Indicator: CHO-AS52/6-THIOGUANINE, Metabolic Activation: NONE) “active; positive”; (Test System: CHINESE HAMSTER OVARY, Strain/Indicator: CHO-K1-BH4 (HGPRT)/6-THIOGUANINE, Metabolic Activation: NONE) “inactive; negative”; (Test System: CHINESE HAMSTER OVARY, Strain/Indicator: CHO-K1-BH4 (HGPRT)/6-THIOGUANINE, Metabolic Activation: RAT, LIVER, S-9, AROCLOR 1254) “inactive; negative”. For the same compound, under “Test System: CHINESE HAMSTER V-79, Strain/Indicator: V-79 (HPRT)/6-THIOGUANINE, Metabolic Activation: NONE”, the mutagenic call is “active; positive”.

As for `O=C(OCCBr)C(=O)OCCBr`, the mutagenic call by setting is: under setting [1], “active; positive”; under setting [4], “active; positive”.

For `S=C1SSC2=NCCN12`, the mutagenic call reads like this: (Test System: AMES SALMONELLA TYPHIMURIUM, Strain/Indicator: TA97, Metabolic Activation: NONE, Method: STANDARD PLATE) “inactive; negative”; (Test System: AMES SALMONELLA TYPHIMURIUM, Strain/Indicator: TA97, Metabolic Activation: RAT, LIVER, S-9, AROCLOR 1254, Method: STANDARD PLATE) “inactive; negative”; under setting [2], “inactive; negative”; under setting [3], “inactive; negative”; under setting [1], “inactive; negative”.

For `c1cc(-c2cc3ccc(C4=NCCN4)cc3[nH]2)ccc1C1=NCCN1`, the mutagenic call is “inactive; negative” under setting [2]; “inactive; negative” (Test System: AMES SALMONELLA TYPHIMURIUM, Strain/Indicator: TA98, Metabolic Activation: RAT, LIVER, S-9, PHENOBARBITAL, Method: STANDARD PLATE); “inactive; negative” under setting [1]; “inactive; negative” (Test System: AMES SALMONELLA TYPHIMURIUM, Strain/Indicator: TA100, Metabolic Activation: RAT, LIVER, S-9, PHENOBARBITAL, Method: STANDARD PLATE).

As for `Cc1ccc(N=Cc2cccc3cccnc23)c(C(=O)O)c1`, the mutagenic call reads like this: under setting [2], “inactive; negative”; under setting [3], “inactive; negative”; under setting [1], “inactive; negative”; under setting [4], “inactive; negative”; (Test System: AMES SALMONELLA TYPHIMURIUM, Strain/Indicator: TA1535, Metabolic Activation: NONE, Method: STANDARD PLATE) “inactive; negative”; (Test System: AMES SALMONELLA TYPHIMURIUM, Strain/Indicator: TA1535, Metabolic Activation: RAT, LIVER, S-9, AROCLOR 1254, Method: STANDARD PLATE) “inactive; negative”. Besides, the mutagenic call (Test System: AMES SALMONELLA TYPHIMURIUM, Strain/Indicator: TA1537, Metabolic Activation: NONE, Method: STANDARD PLATE) is “inactive; negative” and the mutagenic call (Test System: AMES SALMONELLA TYPHIMURIUM, Strain/Indicator: TA1537, Metabolic Activation: RAT, LIVER, S-9, AROCLOR 1254, Method: STANDARD PLATE) was “inactive; negative”.
